The test system of series [1] is phospho-RSK (the downstream target of ERK1/2). In words: Pharmacodynamic assay, phospho-RSK in A375 tumor samples. The format is in vivo, mice. Particulars: Mus musculus, A-375; A375 tumor samples harvested at 1 h after dosing at 50 mg/kg PO, compared to vehicle control. On the procedure:
(§1) Foxn1 nu/nu strain of female mice (obtained from Charles River Laboratories, USA), 8-10 weeks of age, body weight range 23-25 g, were used for the tumor xenograft efficacy studies. Human cancer cell lines (such as melanoma A375, colorectal HT29, pancreatic BxPC3, colorectal HCT116, and lung A549) were first grown in vitro, and then about five million (5×10^6) of these cells in 100 μL of serum free medium were mixed with an equal amount of matrigel, and the entire mixture was injected subcutaneously at the right flank region of mice. The tumors were measured with Vernier calipers periodically after the first week of injection. When the tumor volume reached 120-150 mm^3 (about 3-4 weeks after injection) the animals were randomized into different groups so that their tumor volume was approximately the same in all groups.
For PO dosing, the compounds were prepared in a formulation containing 0.5% Methyl cellulose and 0.01% Tween 80. For IV, SC, or IP dosing, the compounds were prepared in 6% solutol-ethanol (1:1), 6% DMSO and 88% saline. Animals were dosed with compounds prepared in specific formulations via PO, IP or SC route either QD or BID at the required doses. Tumors size and body weights were measured twice or thrice in a week. Tumors were harvested at the end of the study after euthanizing the animals according to approved protocols. […]

For series [2], the system named is HT-29 (colorectal carcinoma, B-RafV600E) cells. The series can be described thus: Cell proliferation (Alamar Blue) assay, HT-29. It counts as cell-based, human. Particulars: Homo sapiens, HT-29, HT29 cells. In outline:
(§2)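 After overnight plating (16-24 h), cells were treated for 72 h with compound dilutions spanning roughly 0.0005 to 10 uM. Proliferation was measured by Alamar Blue fluorescence and IC50 values derived from variable-slope dose-response curves.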
Background: Alamar Blue is a resazurin reagent that responds to reducing activity.

Series [3] has as its system HCT116 (colorectal carcinoma, K Ras G13D) cells. The series can be described thus: Cell proliferation (Alamar Blue) assay, HCT116. It counts as cell-based, human. The settings on record: Homo sapiens, HCT-116, HCT116 cells. A digest of the protocol: as §2
In series [4] the test system is phosphorylation of RSK1(S380) (the downstream target of ERK1/2). In words: Phospho-RSK1(S380) ELISA assay in HT-29 cells. The format is cell-based, human. The settings on record: Homo sapiens, HT-29, HT29 cells, read-out: Mechanistic Cell Assay RSK1 Phos HT29 IC50. In outline: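 IC50 values derive from a variable-slope sigmoidal fit of sandwich-ELISA signal (450 nm) for RSK1 Ser380 phosphorylation. The cells were B-RafV600E HT-29 colorectal line, exposed to serially diluted compound for 2 h after overnight seeding, then lysed at 4° C.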

Series [5] deals with human melanoma xenograft model (A375) harboring B-RAF V600E mutation. In words: A375 human melanoma xenograft model, tumor growth inhibition. The format is in vivo, mice. Particulars: 50 mg/kg BID orally for 19 days. On the procedure:
as §1, with “When the tumor volume reached 120-150 mm^3 (about 3-4 weeks after injection) the animals were randomized into different groups so that their tumor volume was approximately the same in all groups.” left out
For PO dosing, the compounds were prepared in a formulation containing 0.5% Methyl cellulose and 0.01% Tween 80. […] Tumors size and body weights were measured twice or thrice in a week. […]
Changes in tumor volume (Δ volumes) for each treated (T) and control (C) group were calculated by subtracting the mean tumor volume on the first day of treatment (starting day) from the mean tumor volume on the specified observation day. […] Percentage tumor growth inhibition was calculated as [100−% T/C]. Percentage body weight change was calculated as [(Body weight on specified observation day−Body weight on starting day)/Body weight on starting day]×100. […]
A general note: In xenograft studies the graft and the host belong to different species.

The target of another series is T1, ERK1 (Homo sapiens, UniProt P27361).
T1 construct: purchased Jubilant Biosys
In words: ERK1 HTRF (biochemical) assay. Particulars: HTRF. On the procedure:
(§3) ERK1 and ERK2 HTRF (Biochemical) Assays
These assays employed a homogeneous time resolved fluorescence (HTRF) technique. […] The plate was incubated at room temperature for 60 min with shaking. […] The IC50 values (half maximal inhibitory concentration values) were subsequently determined using a sigmoidal dose-response curve (variable slope) in GraphPad Prism® 5 software.
A general note: TR-FRET usually uses a lanthanide donor and a delayed reading to cut background.

For a further series, the target named is T2, ERK2 (Homo sapiens, UniProt P28482).
T2 construct: purchased Jubilant Biosys
In words: ERK2 HTRF (biochemical) assay. The settings on record: HTRF. On the procedure: as §3
These assays employed a homogeneous time resolved fluorescence (HTRF) technique. The compounds were serially diluted by half-log with concentrations ranging from 0.0005 to 10 uM in the assay buffer (50 mM Tris pH=7.5, 1 mM EGTA, 2 mM DTT, 10 mM MgCl2, 0.100 Tween-20) and 20 uL of substrate-ATP mix [1 uM Biotin-LC-Myelin Basic Protein (MBP) derivatized Peptide (Anaspec)-24 uM ATP (Sigma)] was added to each well of the assay plate. Then 10 uL of enzyme mix [25 nM ERK1 or ERK2 (Jubilant Biosys) in assay buffer] was added to each well. The plate was incubated at room temperature for 60 min with shaking. The HTRF mix [625 nM LANCER Ultra Europium-anti-phospho-MBP (Perkin Elmer) and 2 nM Phycolink® Streptavidin-Allophycocyanin (SA-APC) (Prozyme) in HTRF buffer (50 mM Tris-HCl pH=7.5, 100 mM NaCl, 0.1% BSA, 0.05% Tween20, 0.5 mM EDTA)] was prepared and 75 uL of this mix was added to the HTRF plate. After incubation for 60 min at room temperature, 10 uL of the reaction mixture was transferred to the HTRF assay plate and incubated for 45 min at room temperature with shaking. Plate was read using Pherastar in HTRF mode (excitation 337 nm, emission 665 & 620 nm). The IC50 values (half maximal inhibitory concentration values) were subsequently determined using a sigmoidal dose-response curve (variable slope) in GraphPad Prism® 5 software.

Read-outs that look alike come from different tables or passages of the source.

T2 sequence (P28482 whole entry): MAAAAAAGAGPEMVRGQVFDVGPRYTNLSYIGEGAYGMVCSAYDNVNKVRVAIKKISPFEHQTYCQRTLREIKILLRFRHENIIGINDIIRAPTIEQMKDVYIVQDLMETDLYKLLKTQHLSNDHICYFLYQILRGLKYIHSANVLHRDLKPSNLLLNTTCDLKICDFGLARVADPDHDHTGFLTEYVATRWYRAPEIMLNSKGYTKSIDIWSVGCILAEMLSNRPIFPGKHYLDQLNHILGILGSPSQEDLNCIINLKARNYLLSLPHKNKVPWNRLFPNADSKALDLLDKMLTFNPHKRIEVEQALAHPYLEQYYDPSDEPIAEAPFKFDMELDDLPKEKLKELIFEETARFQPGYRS
T1 sequence (P27361 whole entry): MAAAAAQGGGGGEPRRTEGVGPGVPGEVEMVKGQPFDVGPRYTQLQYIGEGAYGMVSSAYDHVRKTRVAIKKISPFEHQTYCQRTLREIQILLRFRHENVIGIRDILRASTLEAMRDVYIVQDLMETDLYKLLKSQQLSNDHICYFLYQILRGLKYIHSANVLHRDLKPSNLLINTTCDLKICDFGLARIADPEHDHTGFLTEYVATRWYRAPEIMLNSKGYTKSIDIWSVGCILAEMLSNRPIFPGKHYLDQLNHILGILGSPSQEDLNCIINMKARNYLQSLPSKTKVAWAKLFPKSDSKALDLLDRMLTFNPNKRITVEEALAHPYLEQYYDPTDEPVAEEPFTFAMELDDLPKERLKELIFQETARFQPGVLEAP

The term inhibition denotes the percentage by which the read-out fell short of the control. Read a high inhibition as a strong effect. Turning to `Cc1cnc(NC2CCOCC2)nc1-n1cnc(C(=O)NC(CO)c2cccc(Cl)c2)c1` (stereo not drawn) [Example 201], the inhibition at 50 mg/kg in series [1] is around 66%.

For `Cc1cnc(NC2CCOCC2)nc1-n1cnc(C(=O)N[C@H](CO)c2cccc(Cl)c2)c1` [Example 211], in series [1], the inhibition at 50 mg/kg is around 84%.

Usually IC50 stands for the concentration that gives 50% inhibition. In the case of `Cc1cnc(N[C@H]2CCOC2)nc1-n1cnc(C(=O)N[C@H](CN)c2cccc(Cl)c2)c1` [Example 255, N-((S)-2-amino-1-(3-chlorophenyl)ethyl)-1-(5-methyl-2-(((S)-tetrahydrofuran-3-yl)amino)pyrimidin-4-yl)-1H-imidazole-4-carboxamide], the IC50 in series [2], in series [3] and in series [4] (phospho-RSK1(S380)) was at most 100 nM each time. The body weight loss entry in series [5] is “no significant body weight loss”.

Take `Cc1cnc(N[C@H]2CCOC2)nc1-n1cnc(C(=O)NCc2cccc(Cl)c2F)c1` [Example 315, (S)-N-(3-chloro-2-fluorobenzyl)-1-(5-methyl-2-((tetrahydrofuran-3-yl)amino)pyrimidin-4-yl)-1H-imidazole-4-carboxamide]: the IC50 was below 50 nM against ERK1; at most 50 nM against ERK2; above 2500 nM in series [2]; above 2500 nM in series [3]; above 2500 nM in series [4].

In the case of `Cc1cnc(N[C@H]2CCOC2)nc1-n1cnc(C(=O)NCc2c(F)cccc2F)c1` [Example 316, (S)-N-(2,6-difluorobenzyl)-1-(5-methyl-2-((tetrahydrofuran-3-yl)amino)pyrimidin-4-yl)-1H-imidazole-4-carboxamide], the IC50 against ERK1 is 500 to 2500 nM; at ERK2, 100 to 500 nM; in series [2] it was above 2500 nM; in series [3], above 2500 nM; in series [4], above 2500 nM.

On to `Cc1cnc(N[C@H]2CCOC2)nc1-n1cnc(C(=O)NCc2cccc(C(F)(F)F)c2Cl)c1` [Example 317, (S)-N-(2-chloro-3-(trifluoromethyl)benzyl)-1-(5-methyl-2-((tetrahydrofuran-3-yl)amino)pyrimidin-4-yl)-1H-imidazole-4-carboxamide], for which the IC50 against ERK1 was 50 to 100 nM; against ERK2, at most 50 nM; in series [2], above 2500 nM; in series [3], above 2500 nM; in series [4], above 2500 nM.

Turning to `Cc1cnc(N[C@H]2CCOC2)nc1-n1cnc(C(=O)NCc2cccc(Cl)c2Cl)c1` [Example 319, (S)-N-(2,3-dichlorobenzyl)-1-(5-methyl-2-((tetrahydrofuran-3-yl)amino)pyrimidin-4-yl)-1H-imidazole-4-carboxamide], the IC50 against ERK1 was below 50 nM; on ERK2, at most 50 nM; in series [2], above 2500 nM; in series [3] it was above 2500 nM; in series [4], 500 to 2500 nM.

Consider `Cc1cnc(N[C@H]2CCOC2)nc1-n1cnc(C(=O)NCc2ccc(C(F)(F)F)c(F)c2)c1` [Example 321, (S)-N-(3-fluoro-4-(trifluoromethyl)benzyl)-1-(5-methyl-2-((tetrahydrofuran-3-yl)amino)pyrimidin-4-yl)-1H-imidazole-4-carboxamide], for which the concentration for half-maximal inhibition (IC50) was 50 to 100 nM against ERK1; at most 50 nM against ERK2; above 2500 nM in series [2]; above 2500 nM in series [3]; 500 to 2500 nM in series [4].

In the case of `Cc1cnc(N[C@H]2CCOC2)nc1-n1cnc(C(=O)NCc2c(Cl)cccc2C(F)(F)F)c1` [Example 322, (S)-N-(2-chloro-6-(trifluoromethyl)benzyl)-1-(5-methyl-2-((tetrahydrofuran-3-yl)amino)pyrimidin-4-yl)-1H-imidazole-4-carboxamide], the IC50 is 500 to 2500 nM against ERK1; 500 to 2500 nM at ERK2; above 2500 nM in series [2]; above 2500 nM in series [3]; above 2500 nM in series [4].

Turning to `Cc1cccc(CNC(=O)c2cn(-c3nc(N[C@H]4CCOC4)ncc3C)cn2)c1` [Example 323, (S)-1-(5-methyl-2-((tetrahydrofuran-3-yl)amino)pyrimidin-4-yl)-N-(3-methylbenzyl)-1H-imidazole-4-carboxamide], the IC50 was below 50 nM against ERK1; at most 50 nM against ERK2; above 2500 nM in series [2]; above 2500 nM in series [3]; 250 to 500 nM in series [4].

For `Cc1cnc(N[C@H]2CCOC2)nc1-n1cnc(C(=O)NCc2ccc(Cl)c(F)c2)c1` [Example 324, (S)-N-(4-chloro-3-fluorobenzyl)-1-(5-methyl-2-((tetrahydrofuran-3-yl)amino)pyrimidin-4-yl)-1H-imidazole-4-carboxamide], the IC50 against ERK1 was below 50 nM; against ERK2, at most 50 nM; in series [2], above 2500 nM; in series [3], above 2500 nM; in series [4], 500 to 2500 nM.

`Cc1cnc(N[C@H]2CCOC2)nc1-n1cnc(C(=O)NCc2cccc(C(C)(C)C)c2)c1` [Example 327, (S)-1-(5-methyl-2-((tetrahydrofuran-3-yl)amino)pyrimidin-4-yl)-N-(3-tert-butylbenzyl)-1H-imidazole-4-carboxamide]: the IC50 against ERK1 is below 50 nM; at ERK2, at most 50 nM; in series [2], 500 to 2500 nM; in series [3], above 2500 nM; in series [4] it was 100 to 250 nM.
